# Reference: US20260240844A1, “INHIBITORS OF CHD1L AND USES THEREOF” (The Regents of the University of Colorado, a body corporate, priority 2023, published 2026)
# Like-named read-outs stand apart in the source and are kept apart here.
# Assays:
# [1] = target: T1, PARP1 (Homo sapiens, UniProt P09874); test: PARP1 enzymatic (colorimetric) assay
# Description: First, a 96 well plate was coated with histones. Next, the biotinylated NAD^+ substrate was incubated with an activated DNA template, the inhibitor to test and the PARP1/2 enzyme for 1 h at RT. After that, the sample plate was treated with streptavidin-RP for 30 min at RT, followed by addition of the horseradish peroxidase (HRP) substrate until the colorimetric signal was developed. The EnVision plate reader (PerkinElmer) was used to measure the absorbance at 450 nm and the results were plotted and analyzed using GraphPad Prism.
# [2] = test system: caspase-3; test: Caspase-3 cleavage activation; assay type: cell-based; settings: for caspase-3 cleavage activation: single agent
# Description: AIF in the cytoplasm and nucleus was examined. […] Finally, caspase-3 cleavage activation, an apoptosis marker, was measured (FIG. 16D).
# CHD1Li-mediated PAR translocation to the cytoplasm activates PARthanatos as a cell death mechanism. Parthanatos is a form a programmed cell death different from apoptosis and known to be mediated by PARP1 overactivation. The unique events occurring during parthanatos are: PARP1 rapid activation, accumulation of PAR and nuclear translocation of apoptosis inducing factor (AIF). Without being bound by any particular theory, accumulation of PAR in the cytoplasm caused by CHD1Li can also mediate parthanatos. To better understand the link between PAR translocation to the cytoplasm and cell death, immunofluorescence to measure the activation of caspase-3 and the subcellular localization of AIF after treatment with SOC drugs and Compound 6 in SUM49PT cells was used. […] Without being bound by any particular theory, this might be caused by the mitochondrial outer membrane permeabilization, which triggers release of mitochondrial proteins like AIF or cytochrome c, activating caspase-3 by its cleavage and leading to apoptosis. […] Moreover, when combining CHD1L inhibition with SOC drugs, the cell death mechanism shifts from apoptosis to parthanatos, evidenced by a significant increase in AIF nuclear translocation and decrease in activation of caspase-3 (FIG. 25D-E).
# [3] = test system: HCT116 tumor organoids; test: Viability of isolated EMT phenotype HCT116 tumor organoids; assay type: cell-based; settings: Homo sapiens, HCT-116, 72 h
# [4] = test system: MCF-7 cells; test: Tumor organoid viability, MCF-7; assay type: cell-based; settings: Homo sapiens, MCF7; MCF-7 (luminal breast cancer); read-out: IC50, tumor organoid viability, single agent
# Source text: The tumor organoid viability assay is as described in Example 9.
# [5] = test system: Colo678 cells; test: Colo678 cell viability, combination with chemotherapy; assay type: cell-based; settings: for IC50: Homo sapiens, COLO-678, Colo678 cells, read-out: IC50 5-FU
# [6] = test system: γ-H2AX in SW620 or SUM149PT cells; test: DNA damage (γ-H2AX) immunofluorescence, Example 1; assay type: cell-based
# Source text: The percentage of DNA damage for each single agent dose and combination was plotted on a contour map (FIG. 6A). Each shade on the contour map represents a range of % DNA damage where dark orange is 100% and white is 0% DNA damage.
# [7] = test system: Colo679 cells; test: DDR biomarkers (pATM, RAD51, 53BP1, γ-H2AX) in Colo679 cells; assay type: cell-based; settings: 4 μM
# Source text: (§1) Etoposide was used as a control to show upregulation of DDR pathway biomarkers.
# [8] = test system: SUM149 and MDA-MB-231 cells; test: DDR biomarkers in breast cancer cells; assay type: cell-based; settings: 4 μM
# Source text: as §1
# [9] = test system: SW620 M-phenotype mouse xenografts; test: Irinotecan drug resistant SW620 M-phenotype mouse xenografts; assay type: in vivo
# [10] = test system: colon cancer mouse xenograft; test: Colon cancer mouse xenograft model; assay type: in vivo, mice
# Description: The tumor volume was monitored over 30 days, and the tumor volume was measured after 30 days. The tumor was extracted from the mice, and the dimensions of the tumor were measured to provide a tumor volume in mm^3.
# Key: PO=oral; IP=intraperitoneal; ANOVA significance: *: P<0.05; **: P<0.0003; ***: P<0.0001.
# [11] = Toxicity in mice; assay type: in vivo
# Source text: Organs and blood were harvested and sent to the Colorado State University Flint Animal Cancer Center for histopathological analysis by an independent certified veterinary pathologist with expertise in cancer chemotherapy.
# [12] = target: T1, PARP1; test: PARP1 trapping (in situ subcellular fractionation, immunofluorescence)
# Description: PARP1/2 and CHD1L trapping—PARP1, PARP2 and CHD1L trapping were assessed. SUM149PT cells were plated at a density of 20,000 cells per well into clear bottom black 96-well plates (PerkinElmer). […] After 4 h incubation, cell media was aspirated and cells were treated for 10 min at 4° C. with cold cytoskeleton (CSK) buffer (10 mM PIPES pH=6.8, 300 mM sucrose, 200 mM NaCl, 3 mM MgCl2) supplemented with 0.6% Triton X-100. […] PARP1 (anti-PARP1 antibody, 1:2000, O/N, 4° C.), PARP2 (anti-PARP2, 1:1000, O/N, 4° C.) and CHD1L (anti-CHD1L, 1:1000, O/N, 4° C.) primary antibodies were then added in antibody dilution buffer (2% BSA in PBS) and incubated O/N at 4° C.
# To study the accumulation of bound PARP1/2 on chromatin, in situ subcellular fractioning of SUM149PT cells co-treated with 0.01% methyl methanesulfonate (MMS) and the drug of interest was used, followed by immunofluorescence. […] The cells were exposed to anti-CHD1L and anti-PARP1 fluorescent antibodies, and the cells were subsequently imaged.
# [13] = test system: SW620 cells and HCT116 cells; test: CHD1L-mediated TCF-transcription and CSC stemness (clonogenic colonies)
# [14] = test system: HCT116 Parental cells; test: HCT116 Parental cell viability, combination with chemotherapy; assay type: cell-based; settings: Homo sapiens, HCT-116, HCT116 cells, read-out: IC50 5-FU
# [15] = test system: SW620 Parental cells; test: SW620 Parental cell viability, combination with chemotherapy; assay type: cell-based; settings: Homo sapiens, SW-620, SW620 cells, read-out: IC50 5-FU
# [16] = test system: CRC patient samples; test: Tumor growth inhibition index of CRC patient samples; assay type: in vivo
# Source text: Analytical measurements include tumor volume by caliper and survival. […] Using this information, 8 patient samples with diverse genetic background mutations, stage of cancer, site of cancer (primary vs metastatic) were initially selected (Table 2).
# T1 sequence (P09874 whole entry): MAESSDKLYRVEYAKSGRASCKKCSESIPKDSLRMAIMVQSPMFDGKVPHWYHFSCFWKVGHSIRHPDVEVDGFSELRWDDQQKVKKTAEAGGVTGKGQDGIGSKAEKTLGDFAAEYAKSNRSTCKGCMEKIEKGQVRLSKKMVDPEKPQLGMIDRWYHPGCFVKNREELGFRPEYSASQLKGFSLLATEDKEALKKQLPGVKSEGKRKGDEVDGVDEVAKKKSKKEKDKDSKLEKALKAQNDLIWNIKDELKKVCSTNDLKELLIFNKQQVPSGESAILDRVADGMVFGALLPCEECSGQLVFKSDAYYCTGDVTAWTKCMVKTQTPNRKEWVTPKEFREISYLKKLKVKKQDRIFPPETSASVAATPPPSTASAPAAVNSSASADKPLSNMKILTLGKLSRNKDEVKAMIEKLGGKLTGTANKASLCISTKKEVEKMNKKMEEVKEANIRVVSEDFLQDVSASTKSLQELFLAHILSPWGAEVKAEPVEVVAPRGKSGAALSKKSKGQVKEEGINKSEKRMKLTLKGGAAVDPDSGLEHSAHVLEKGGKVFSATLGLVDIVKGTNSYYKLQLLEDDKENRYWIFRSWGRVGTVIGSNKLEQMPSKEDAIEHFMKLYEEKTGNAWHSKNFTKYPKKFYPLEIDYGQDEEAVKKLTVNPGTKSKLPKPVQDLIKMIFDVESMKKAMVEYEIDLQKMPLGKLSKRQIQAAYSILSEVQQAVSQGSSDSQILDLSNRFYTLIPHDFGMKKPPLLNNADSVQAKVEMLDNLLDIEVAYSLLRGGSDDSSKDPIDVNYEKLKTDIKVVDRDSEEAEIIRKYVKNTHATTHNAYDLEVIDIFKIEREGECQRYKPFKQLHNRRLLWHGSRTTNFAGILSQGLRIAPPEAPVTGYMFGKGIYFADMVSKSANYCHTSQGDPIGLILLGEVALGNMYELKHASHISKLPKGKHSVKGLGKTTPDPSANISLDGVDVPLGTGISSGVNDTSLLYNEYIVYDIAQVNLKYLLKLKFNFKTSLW
structure (smiles),measurement,setting,value
"Cc1cc(Nc2ccc(NC(=O)Cc3cccs3)cc2)nc(N2CCCC2)n1 [Compound 6, N-(4-((6-methyl-2-(pyrrolidin-1-yl)pyrimidin-4-yl)amino)phenyl)-2-(thiophen-2-yl)acetamide]",PARP1 enzyme activity,[1],does not have any effect on PARP1/2 activity
COc1cccc2c1C(=O)c1c(O)c3c(c(O)c1C2=O)C[C@@](O)(C(=O)CO)C[C@@H]3O[C@H]1C[C@H](N)[C@H](O)[C@H](C)O1 [doxorubicin],caspase-3 cleavage activation,[2],activation of apoptosis by cleavage of caspase-3
O=C(c1cc(Cc2n[nH]c(=O)c3ccccc23)ccc1F)N1CCN(C(=O)C2CC2)CC1 [olaparib],IC50,"[3]; combined with Compound 6, read-out: IC50 olaparib",~30 µM
same,IC50,[3]; olaparib alone,~600 µM
"Cc1cc(Nc2ccc(NC(=O)Cc3cc(Br)cs3)cc2)nc(N2CCCC2)n1 [Compound 6.11, 2-(4-bromothiophen-2-yl)-N-(4-((6-methyl-2-(pyrrolidin-1-yl)pyrimidin-4-yl)amino)phenyl)acetamide]",IC50,[4],~1.8 µM
same,calculated mean synergy score,"[5]; Colo678 cells, 72 h, combined with SN-38",about 41
same,"mean synergy score (Bliss), DNA damage",[6]; combined with 5FU,23
same,"mean synergy score (Bliss), DNA damage",[6]; combined with SN38,24
same,DNA damage (γ-H2AX) compared to vehicle,[6]; single agent,no significant DNA damage
same,caspase-3 activation,[2]; Compound 6.11 combined with SN-38,enhanced caspase-3 activation
same,caspase-3 cleavage activation,[2],did not induce caspase-3 activation
same,amount of 53BP1,[7],decrease the amount of 53BP1
same,amount of RAD51,[7],increase the amount of RAD51
same,amount of pATM,[7],minimal effect
same,γ-H2AX concentrations,[7],decreased
same,amounts of γ-H2AX and 53BP1,[8],overall decreases in the amounts of γ-H2AX and 53BP1
same,inhibition of tumor growth vs irinotecan alone,[9]; Compound 6.11 5 mg/kg IP 1×/day + irinotecan 50 mg/kg 1×/week,significantly more effective at inhibiting tumor growth
same,increase in mouse survival,[9]; Compound 6.11 5 mg/kg IP 1×/day + irinotecan 50 mg/kg 1×/week vs irinotecan alone,about a month
same,increase in mouse survival compared to irinotecan alone,"[9]; low doses of Compound 6.11 combined with irinotecan, drug resistant CRC nude mouse xenografts",30 days
same,decrease in tumor volume,"[10]; Compound 6.11 5 mg/kg daily IP + irinotecan 50 mg/kg 1×/week IP, after 20 days",approximately 50%
same,"metastatic tumor burden (bioluminescent imaging, % change total flux)",[10]; Compound 6.11 100 mg/kg 5×/week oral + irinotecan 15 mg/kg 1×/week IP,~0
same,survival,[10]; combination of Compound 6.11 and irinotecan,improved survival rates
same,"toxicity by complete blood count (CBC) panel and H&E histopathology of liver, heart, bone marrow","[11]; mice, 100 mg/kg Compound 6.11 daily for 30 days",no toxicity
same,toxicities,"[11]; mice, daily dosing up to 100 mg/kg, preliminary studies",no significant toxicities
same,"toxicity by CBC chemistry and histology of liver, heart, bone marrow","[11]; nude mice, PO 100 mg/kg 1×/day 7-days/week, alone or combined with irinotecan",no toxicity
same,increase in PARP1 trapping,"[12]; SUM149PT cells, 0.01% MMS, 4 h",10 fold
same,PARP1/2 trapping compared to olaparib alone,[12]; non-trapping doses of Compound 6.11 combined with olaparib,significant increase in PARP1/2 trapping
same,CHD1L-mediated TCF-transcription and CSC stemness,[13],dose dependent inhibition
"O=c1[nH]cc(F)c(=O)[nH]1 [Compound 5-FU, 5-fluorouracil]",IC50,[5]; Compound 6.11 0 μM,3430 µM
same,IC50,[5]; Compound 6.11 3 μM,717 µM
same,IC50,[5]; Compound 6.11 3.25 μM,99.4 µM
same,IC50,[5]; Compound 6.11 3.5 μM,58.5 µM
same,IC50,[5]; Compound 12 0 μM,75100 µM
same,IC50,[5]; Compound 12 1 μM,549 µM
same,IC50,[5]; Compound 12 1.5 μM,392 µM
same,IC50,[5]; Compound 12 2 μM,205 µM
same,IC50,[5]; Compound 13 0 μM,7520 µM
same,IC50,[5]; Compound 13 3.5 μM,544 µM
same,IC50,[5]; Compound 13 3.75 μM,432 µM
same,IC50,[5]; Compound 13 4 μM,246 µM
same,IC50,[5]; Compound 14 2.5 μM,149 µM
same,IC50,[5]; Compound 14 2.75 μM,74.7 µM
same,IC50,[5]; Compound 14 3 μM,50.4 µM
same,IC50,[5]; Compound 20 0 μM,14800 µM
same,IC50,[5]; Compound 20 3.5 μM,170 µM
same,IC50,[5]; Compound 20 4 μM,60 µM
same,IC50,[5]; Compound 20 4.5 μM,34.5 µM
same,IC50,[14]; Compound 11 0 μM,95.7 µM
same,IC50,[14]; Compound 11 2.5 μM,192 µM
same,IC50,[14]; Compound 11 3 μM,63.4 µM
same,IC50,[14]; Compound 11 3.5 μM,43.2 µM
same,IC50,[14]; Compound 12 0 μM,103 µM
same,IC50,[14]; Compound 12 5 μM,34.6 µM
same,IC50,[14]; Compound 12 6 μM,11.5 µM
same,IC50,[15]; Compound 11 0 μM,20.8 µM
same,IC50,[15]; Compound 11 2 μM,59.5 µM
same,IC50,[15]; Compound 11 2.25 μM,54.4 µM
same,IC50,[15]; Compound 11 2.5 μM,47.7 µM
same,IC50,[15]; Compound 12 2 μM,41.4 µM
same,IC50,[15]; Compound 12 2.25 μM,23.9 µM
same,IC50,[15]; Compound 12 2.5 μM,15.4 µM
same,5FU Response (tumor growth inhibition index),"[16]; patient sample CRC001, Primary, KRAS",185.8%
same,5FU Response (tumor growth inhibition index),"[16]; patient sample CRC026, Metastatic",77.3%
same,5FU Response (tumor growth inhibition index),"[16]; patient sample CRC042, Primary, KRAS, TP53",107.8%
same,5FU Response (tumor growth inhibition index),"[16]; patient sample CRC102, Metastatic, KRAS",113.1%
